Reference: patent US20240050498A1, “SYNERGISTIC COMPOSITION OF PHAGES AND ITS FORMATION METHOD” (Proteon Pharmaceuticals S.A., priority 2020, published 2024)

How the values were obtained:
selected APEC strains = assay: Sensitivity of all selected APEC strains to drugs (disk diffusion) and to BAFACOL, summary; assay type: cell-based, Escherichia coli; conditions: all 12 selected strains
Description: BAFACOL preparation with the total titer of 1×10^8 PFU/ml was used in the tests.
(§1) The drug sensitivity of APEC strains was tested with a disk diffusion method, according to CLSI recommendations (Clinical Laboratory Standards Institute; 2008 document: Performance standards for antimicrobial disk and dilution susceptibility tests for bacteria isolated from animals; approved standard, 3rd Ed. CLSI document M31-A3. Clinical and Laboratory Standards Institute, Wayne, PA.). The disk diffusion method used disks soaked with 10 selected drugs (Table 9).
The other tested APEC strains were resistant to 6-8 test antimicrobial drugs.

E. coli strain 130PP2017 = assay: Sensitivity of APEC strain to drugs (disk diffusion) and to BAFACOL; assay type: cell-based, Escherichia coli; conditions: CLSI, disk content as in column head
Description: as §1, with “[…]-A3.” for “M31-A3.”

APEC strains = conditions: nearly 150 APEC strains, in vitro [Oliviera A. et al., 2009]; cited from earlier work

SMILES | Drug sensitivity of all selected APEC strains (selected APEC strains) | also measured
CC1(C)S[C@@H]2[C@H](NC(=O)[C@H](N)c3ccccc3)C(=O)N2[C@H]1C(=O)O [Ampicillin] | resistant | 
CN[C@@H]1[C@@H](O[C@H]2O[C@H](CO)[C@@H](N)[C@H](O)[C@H]2O)OC2C[C@@H](N)[C@@H](O[C@H]3[C@H](O)[C@@H](O)[C@H](N)C[C@@H]3N)OC2[C@@H]1O (some centres unmarked) [Apramycin] |  | Sensitivity to drug (R/I/S) (E. coli strain 130PP2017): sensitive
CCn1cc(C(=O)O)c(=O)c2ccc(C)nc21 [Nalidixic acid] | resistant | 
[H]/N=C(/N)N[C@H]1[C@H](O)[C@@H](O)[C@H](O[C@@H]2O[C@@H](C)[C@](O)(C=O)[C@H]2O[C@@H]2O[C@@H](CO)[C@H](O)[C@@H](O)[C@@H]2NC)[C@@H](N/C(N)=N\[H])[C@@H]1O [Streptomycin] | resistant | 
CCN1CCN(c2cc3c(cc2F)c(=O)c(C(=O)O)cn3C2CC2)CC1 [enrofloxacin] |  | Share of studied APEC strains that were sensitive (APEC strains): more than 50%
